Values joined by “and” are separate entries in the source; they are usually repeats but may differ in a detail not shown here. Equal entries are not always repeated.
Assays:
Assay type in all cases: cell-based
[1] = system: human colorectal adenocarcinoma cells (DLD-1); assay: MTT anti-proliferative assay, DLD-1 (Examples 3-12); details: 200 μg/ml; for % inhibition / % stim. / Mean OD (570 nm): 48 hours
Protocol: (§1) 5-phenylpenta-2,4-dienoic acid was assessed for its ability to modulate the viability and proliferation of human colorectal adenocarcinoma cells (DLD-1); human colon cancer cell line (HCT-116); human gastric carcinoma cell line (NCI-N87); and human oesophageal squamous cell carcinoma cell line (KYSE-30) as assessed by the MTT assay. The positive control, 5-fluorouracil (5-FU) was included at three concentrations; in addition to an unsupplemented cell control as a negative control in the study. The 5-phenylpenta-2,4-dienoic acid was a genuine standard with chemical structure confirmed by NMR and MS.
(§2) The four human gastrointestinal carcinoma cell lines were revived from cryostorage and cultured in the presence of the test and reference samples. An MTT assay was then performed on the cultures to determine the effect of the samples on the cell viability and proliferation.
(§3) The test sample 5-phenylpenta-2,4-dienoic acid, and all other test samples in Examples 4-12 (except tectochrysln) were Initially dissolved in pure ethanol to a concentration of around 13.35 mg/ml. Tectochrysin was initially dissolved in triethylene glycol mono-methyl ether to the same concentration. Working solutions were then prepared from the stock solutions by dilution to 15% ethanol/Hanks Balanced Salt Solution (ETOH)/HBSS to a concentration of 2 mg/mL solids. In the assay the final concentration of the samples was 200 μg/ml with a final EtOH concentration of 1.5%. Final concentrations of test compounds and propolis prepared as above are as noted in Example 3.
(§4) • 1. Human colorectal adenocarcinoma cells (ATCC CCI-221, DLD-1)(ATCC, Bethesda, Md., USA) • 2. Human gastric carcinoma cells (ATCC CRL-5822, NCI-N87)(ATCC, Bethesda, Md., USA) • 3. Human oesophageal squamous cell carcinoma (ECACC, KYSE-30)(Sigma Aldrich, Auckland, NZ) • 4. Human colon carcinoma cells (ECACC HCT-116)(Sigma Aldrich, Auckland, NZ) • 5. Penicillin-streptomycin solution: 10000 units/ml penicillin, 10 mg/ml streptomycin in 0.9% NaCl (Sigma Cat #P-0781). Stored at −20° C. • 6. For DLD-1 cells: DMEM culture medium (Invitrogen Cat #12100-046). Stored at 4° C. • 7. For NCI-N87 cells: RPMI-1640 medium modified to contain 2 mM L-glutamine, 10 mM HEPES, 1 mM sodium pyruvate, 4500 mg/L glucose, and 1500 mg/L sodium bicarbonate (Sigma R6504). Stored at 4° C. • 8. For KYSE-410 cells: RPMI-1640 medium modified to contain 2 mM L-glutamine (Sigma R6504). Stored at 4° C. • 9. For HCT-116 cells: McCoy's 5A medium modified to contain 2 mM L-glutamine (Sigma M48792). Stored at 4° C. • 10. Trypsin-EDTA solution: 0.25% Trypsin/EDTA, Invitrogen Cat#15400054 (×10 in stock). • 11. Phosphate buffered saline (PBS) (Prepared by TBL). • 12. Hanks Balanced Salt Solution (HBSS). (GIBCO Cat No. 14185-052). Stored at 4° C. • 13. Foetal Bovine Serum (GIBCO Cat #10091-148). Stored at −20° C. • 14. MTT Reagent: 100 mg/vial, (SIGMA Cat. No. M-2128) dissolved in PBS at 10 mg/ml and stored at −20° C. 5 mg/ml MTT solution will be prepared in PBS and stored at 4° C. as working solution. • 15. MTT lysis buffer: 10% sodium dodecyl sulphate (SDS)/45% Dimethyl Formamide (20 g SDS will be dissolved in 100 ml of double-distilled water (DDW), and 90 ml of Dimethyl Formamide will be added to the SDS solution). The pH will be adjusted to 4.7 by glacial acetic acid, and DDW added up to a final volume of 200 ml. • 16. 5-Fluorouracil (5-FU), (Sigma Cat. No. F-6627). Three working solutions will be prepared at 19.5 μg/ml. 6.5 μg/ml and 1.95 μg/ml dissolved in 15% Ethanol/HBSS. Final concentrations will be 1.95 μg/ml (15 μM), 0.65 μg/ml (5 μM) and 0.195 μg/ml (1.5 μM).
(§5) The medium for the propagation of the each of the cells lines is given above. Each medium was prepared following the ATCC/ECACC instructions and supplemented with penicillin-streptomycin solution (10 ml per litre). FBS (at 10%) was added just before use.
• 1. […]

[2] = system: human colon cancer cell line (HCT-116); assay: MTT anti-proliferative assay, HCT-116 (Examples 3-12); details: 200 μg/ml; for % inhibition / % stim. / Mean OD (570 nm): 48 hours
Protocol: as §1, §2, §3, §4, §5
• 1. […]

[3] = system: human gastric carcinoma cell line (NCI-N87); assay: MTT anti-proliferative assay, NCI-N87 (Examples 3-12); details: 200 μg/ml; for % inhibition / % stim. / Mean OD (570 nm): 48 hours
Protocol: as §1, §2, §3, §4, §5
• 1. […]

[4] = system: human oesophageal squamous cell carcinoma cell line (KYSE-30); assay: MTT anti-proliferative assay, KYSE-30 (Examples 3-13); details: Examples 3-12, 200 μg/ml, 48 hours
Protocol: as §1, §2, §3, §4, §5
• 1. […]

[5] = system: human oesophageal squamous cell carcinoma cell line (KYSE-30); assay: as above
[6] = system: human colorectal adenocarcinoma cells (DLD-1); assay: MTT proliferation assay, DLD-1 (Examples 1-2); details: Example 2, DLD-1, sample 200 μg/mL, 24 hours incubation
Protocol: Test samples shown below in Table 2 were assessed for their ability to modulate the viability and proliferation of human colorectal adenocarcinoma cells (DLD-1) as assessed by the MTT assay. A positive control, 5-fluorouracil (5-FU) was included in addition to an unsupplemented cell control (negative control) in the study. The test samples were obtained by fractionation of propolis tincture.
Test samples shown below in Table 2 were assessed for their ability to modulate the viability and proliferation of human colorectal adenocarcinoma cells (DLD-1) as assessed by the MTT assay. A positive control, 5-fluorouracil (5-FU) was included in addition to an unsupplemented cell control (negative control) in the study.
Human colorectal adenocarcinoma epithelial cell lines were revived from cryostorage and cultured in the presence of the test and reference samples. The culture conditions for the cells were those described by the supplier of the cells (ATCC). An MTT assay was then performed on the cultures to determine the effect of the samples on the cell proliferation.
Working solutions were prepared by dissolving the test fractions in 15% ethanol (ETOH)/HBSS to a concentration of 2 mg/mL solids.
• 1. Human colorectal adenocarcinoma cells (ATCC CCI-221, DLD-1). • 2. Penicillin-streptomycin solution: 10000 units/mL penicillin, 10 mg/mL streptomycin in 0.9% NaCl (Sigma Cat #P-0781). Stored at −20° C. • 3. DMEM culture medium (Invitrogen Cat #12100-046) Stored at −20° C. • 4. Trypsin-EDTA solution: 0.25% Trypsin/EDTA, Invitrogen Cat#15400054 (×10 in stock). • 5. Phosphate buffered saline (PBS) (Prepared by TBL). • 6. Hanks Balanced Salt Solution (HBSS). (GIBCO Cat No. 14185-052). Stored at 4° C. • 7. Foetal Bovine Serum (GIBCO Cat #10091-148). Stored at −20° C. • 8. MTT Reagent: 100 mg/vial, (SIGMA Cat. No. M-2128) dissolved in PBS at 10 mg/mL and stored at −20° C. 5 mg/mL MTT solution were prepared in PBS and stored at 4° C. as working solution. • 9. MTT lysis buffer: 10% sodium dodecyl sulphate (SDS)/45% Dimethyl Formamide (20 g SDS was dissolved in 100 mL of double-distilled water (DDW), and 90 mL of Dimethyl Formamide added to the SDS solution). The pH was adjusted to 4.7 by glacial acetic acid, and DDW added up to a final volume of 200 mL. • 10. 5-Fluorouracil (5-FU), (Sigma Cat. No. F-6627). Two working solutions were prepared at 150 ng/mL and 75 ng/mL, dissolved in 15% Ethanol/HBSS. Final concentrations were 7.50 ng/mL and 3.75 ng/mL.
The medium for the propagation of the colorectal adenocarcinoma (DLD-1) cells was DMEM, supplemented with penicillin-streptomycin solution (10 mL per litre). FBS was added just before use to give 10% w/v.
• 1. The human colorectal adenocarcinoma cells (DLD-1) obtained from the American Type Culture Collection USA were revived from cryostorage. • 2. Following initial propagation using the media described above (see Medium Preparation), the culture was subcultured using the trypsin-EDTA as follows. The media was removed and 5 mL of the trypsin-EDTA solution added and incubated at 37° C. for 5 min or until all the cells had detached. The trypsin was neutralised by adding an equal volume of DMEM medium and the culture centrifuged at 300 g (1200 rpm) for 5 min at 4° C. • 3. The supernatant was decanted and the cell pellets resuspended in medium DMEM, FBS (10%), penicillin (100 units/mL), streptomycin (100 μg/mL). The cells were cultured at 37° C. in 5% CO2/95% air. • 4. After reaching confluence, the cells were detached using trypsin-EDTA and centrifuged as described in 2 above. • 5. The supernatants were discarded and the cells resuspended in DMEM and supplements as described in 3 above at 1.0×10^4 cells per mL. • 6. Into each well of three 96 well plates, 180 μl of the cells (1,800 cells/well) or medium was added. The plates were incubated at 5% CO2/95% air at 37° C. for 48 h which was sufficient to allow the cells to adhere. • 7. To each well, 20 μl of each, of the test samples or positive control was added. […]

[7] = listed as 1,1-dimethylallylcaffeic acid

| Compound | % inhibition [1] | % stim. [1] | Mean OD (570 nm) [1] | % inhibition [2] | % stim. [2] | Mean OD (570 nm) [2] | % inhibition [3] | % stim. [3] | Mean OD (570 nm) [3] | % inhibition [4] | % stim. [4] | Mean OD (570 nm) [4] | Mean OD (570 nm) [6] | other results |
| --- | --- | --- | --- | --- | --- | --- | --- | --- | --- | --- | --- | --- | --- | --- |
| 1,1-dimethylallyl caffeic acid | 93.24% | 0% | 0.0279 | 96.73% | 0% | 0.0166 | 86.74% | 0% | 0.0586 | 97.8% | 0% | 0.0133 | – | % inhibition [1, 7]: 93.2%; % inhibition [2, 7]: 86.7%; % inhibition [3, 7]: 86.7%; % inhibition ([5]; Example 13, 100 μg/ml): 88.63%; Mean OD (570 nm) ([5]; Example 13, 100 μg/ml): 0.0381 |
| C=C(C)CCOC(=O)C=Cc1ccc(O)c(O)c1 [3-methyl-3-butenyl caffeate, 3-methyl-3-butenyl caffeic acid] | 91.6% and 91.63% | 0% | 0.0345 | 96.0% and 96.03% | 0% | 0.0202 | 84.5% and 84.54% | 0% | 0.0683 | 96.3% and 96.31% | 0% | 0.0222 | – | % inhibition ([5]; Example 13, 10 μg/ml): 39.3% and 39.33%; Mean OD (570 nm) ([5]; Example 13, 10 μg/ml): 0.2034 |
| COc1cc(O)c2c(c1)OC(c1ccccc1)CC2=O (stereo not drawn) [Pinocembrin 7-methyl ether] | – | – | – | – | – | – | – | – | – | – | – | – | 0.3151 | % inhibition [6]: 2.71%; % inhibition ([6]; listed as #38 Pinocembrin 7-methyl ether): 2.7% |
| O=C(O)/C=C/c1ccccc1 [Trans-Cinnamic acid] | – | – | – | – | – | – | – | – | – | – | – | – | 0.2390 | inhibition at 200 µg/mL ([6]; Homo sapiens): 26.2% |
| COc1cc(/C=C/C(=O)OCc2ccccc2)ccc1O [benzyl ferulate] | 86.02% | 0% | 0.0576 | 95.92% | 0% | 0.0207 | 86.96% | 0% | 0.0576 | 98.62% | 0% | 0.0083 | – | inhibition at 200 µg/mL ([1]; Homo sapiens, DLD-1, 48 h): 86%; inhibition at 200 µg/mL ([2]; Homo sapiens, HCT-116, 48 h): 95.9%; inhibition at 200 µg/mL ([3]; Homo sapiens, NCI-N87, 48 h): 87%; inhibition at 200 µg/mL ([4]; Homo sapiens, KYSE-30, 48 h): 98.6%; Mean OD (570 nm) ([5]; Example 13, 50 μg/ml): 0.0398; inhibition at 50 µg/mL ([5]; Homo sapiens, KYSE-30, Example 13, 50 μg/ml): 88.1% |

Source: US20160030364A1, “Therapeutic Compositions and Uses Thereof” (MANUKA HEALTH NEW ZEALAND LIMITED, priority 2013, published 2016)
